Results on 8 molecules are retold here after article PMC2919811 (Analytical biochemistry, 2010).

The target of data set [1] is T1, OATP1B3 (Homo sapiens, UniProt Q9NPD5).
T1 sequence (Q9NPD5 1-702): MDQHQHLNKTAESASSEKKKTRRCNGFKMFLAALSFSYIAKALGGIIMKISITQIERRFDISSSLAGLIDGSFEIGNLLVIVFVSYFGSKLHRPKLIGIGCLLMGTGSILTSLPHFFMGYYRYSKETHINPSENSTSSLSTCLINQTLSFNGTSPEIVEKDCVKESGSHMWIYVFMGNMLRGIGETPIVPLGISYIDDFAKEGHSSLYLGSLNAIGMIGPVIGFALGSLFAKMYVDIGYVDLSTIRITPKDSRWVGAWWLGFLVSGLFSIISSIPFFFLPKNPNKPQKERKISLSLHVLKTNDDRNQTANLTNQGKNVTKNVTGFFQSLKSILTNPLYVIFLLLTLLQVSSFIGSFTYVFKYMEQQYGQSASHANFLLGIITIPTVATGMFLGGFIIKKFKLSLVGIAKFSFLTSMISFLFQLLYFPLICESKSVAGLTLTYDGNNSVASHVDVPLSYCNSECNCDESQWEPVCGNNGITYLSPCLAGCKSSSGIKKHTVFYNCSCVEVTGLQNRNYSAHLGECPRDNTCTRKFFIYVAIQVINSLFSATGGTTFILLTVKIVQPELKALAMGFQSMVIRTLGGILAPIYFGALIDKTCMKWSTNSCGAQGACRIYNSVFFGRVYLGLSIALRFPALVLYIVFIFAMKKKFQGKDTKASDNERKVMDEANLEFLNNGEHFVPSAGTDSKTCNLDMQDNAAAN
The data set is described as follows: Cellular accumulation in CHO cells transiently transfected with OATP1B3. The settings on record: 2 μM substrate (figure 2 legend), transiently transfected CHO cells.

Data set [2] deals with T2, OATP2B1 (Homo sapiens, UniProt O94956).
T2 sequence (O94956 1-709): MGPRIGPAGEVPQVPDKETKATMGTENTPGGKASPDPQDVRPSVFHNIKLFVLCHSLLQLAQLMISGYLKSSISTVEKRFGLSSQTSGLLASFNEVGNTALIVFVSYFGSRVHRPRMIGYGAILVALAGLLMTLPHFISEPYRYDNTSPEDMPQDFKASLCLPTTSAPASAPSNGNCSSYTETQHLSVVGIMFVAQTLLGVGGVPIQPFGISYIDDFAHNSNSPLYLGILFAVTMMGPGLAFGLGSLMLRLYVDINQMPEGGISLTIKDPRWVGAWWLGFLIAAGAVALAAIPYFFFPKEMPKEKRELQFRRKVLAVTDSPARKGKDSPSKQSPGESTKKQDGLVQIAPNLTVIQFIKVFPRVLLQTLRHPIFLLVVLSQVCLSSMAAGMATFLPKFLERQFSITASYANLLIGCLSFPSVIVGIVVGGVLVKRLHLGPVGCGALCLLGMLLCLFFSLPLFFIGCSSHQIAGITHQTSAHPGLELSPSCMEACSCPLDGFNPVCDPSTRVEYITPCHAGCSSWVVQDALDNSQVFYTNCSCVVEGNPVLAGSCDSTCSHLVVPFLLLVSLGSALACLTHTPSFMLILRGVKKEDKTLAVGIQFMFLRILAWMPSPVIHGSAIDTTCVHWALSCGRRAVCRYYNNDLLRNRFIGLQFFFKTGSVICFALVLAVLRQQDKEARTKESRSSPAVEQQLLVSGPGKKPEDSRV
The data set is described as follows: Substrate uptake in CHO cells stably expressing OATP2B1. It counts as cell-based. The settings on record: 2 μM substrate, five minute accumulation, CHOvector = 1.

Data set [3] addresses T1, OATP1B3. The following applies: read-out: OATP1B3 Km; literature value; cited from earlier work.
Data set [4] has as its target T1, OATP1B3.
Data set [5] deals with T3, OATP1B1 (Homo sapiens, UniProt Q9Y6L6).
T3 sequence (Q9Y6L6 whole entry): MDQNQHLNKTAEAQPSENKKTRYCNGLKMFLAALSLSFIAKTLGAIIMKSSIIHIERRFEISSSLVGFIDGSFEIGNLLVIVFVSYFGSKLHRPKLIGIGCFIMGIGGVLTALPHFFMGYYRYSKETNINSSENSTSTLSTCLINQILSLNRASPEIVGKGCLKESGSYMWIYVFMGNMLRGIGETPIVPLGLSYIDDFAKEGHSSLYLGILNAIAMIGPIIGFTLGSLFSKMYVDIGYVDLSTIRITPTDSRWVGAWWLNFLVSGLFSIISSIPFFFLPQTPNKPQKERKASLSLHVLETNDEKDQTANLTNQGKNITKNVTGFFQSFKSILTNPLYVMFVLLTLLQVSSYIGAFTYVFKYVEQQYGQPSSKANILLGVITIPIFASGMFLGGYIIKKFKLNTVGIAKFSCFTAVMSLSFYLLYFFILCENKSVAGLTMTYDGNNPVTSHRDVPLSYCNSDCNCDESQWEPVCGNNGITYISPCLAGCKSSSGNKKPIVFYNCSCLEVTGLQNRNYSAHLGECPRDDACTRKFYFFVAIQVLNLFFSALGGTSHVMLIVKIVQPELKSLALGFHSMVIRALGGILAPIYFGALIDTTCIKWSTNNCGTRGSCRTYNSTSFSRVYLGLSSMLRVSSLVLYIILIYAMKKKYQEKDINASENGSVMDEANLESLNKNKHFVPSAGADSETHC
The target of data set [6] is T1, OATP1B3. Briefly: Substrate uptake and transport kinetics in CHO cells stably expressing OATP1B3. The following applies: 2 μM substrate, five minute accumulation, CHOvector = 1.
Data set [7] addresses T3, OATP1B1. The settings on record: read-out: OATP1B1 Km; literature value; cited from earlier work.
The target in another data set is T4, OAT3 (Homo sapiens, UniProt Q8TCC7).
T4 sequence (Q8TCC7 1-542): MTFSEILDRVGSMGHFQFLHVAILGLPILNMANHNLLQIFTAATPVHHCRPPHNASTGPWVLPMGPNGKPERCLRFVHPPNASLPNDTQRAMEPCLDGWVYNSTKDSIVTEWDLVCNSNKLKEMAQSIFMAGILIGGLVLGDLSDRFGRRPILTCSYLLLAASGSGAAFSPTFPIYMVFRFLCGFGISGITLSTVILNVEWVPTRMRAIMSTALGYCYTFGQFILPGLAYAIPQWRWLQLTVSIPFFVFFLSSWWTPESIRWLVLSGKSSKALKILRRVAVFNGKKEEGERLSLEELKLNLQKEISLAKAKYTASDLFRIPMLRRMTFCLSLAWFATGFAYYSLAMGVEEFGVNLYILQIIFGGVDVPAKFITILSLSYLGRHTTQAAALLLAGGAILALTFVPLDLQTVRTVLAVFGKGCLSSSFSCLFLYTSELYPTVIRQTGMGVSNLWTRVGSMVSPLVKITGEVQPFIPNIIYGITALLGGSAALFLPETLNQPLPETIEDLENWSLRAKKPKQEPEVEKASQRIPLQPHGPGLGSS
The data set is classed as cell-based. The settings on record: 2 μM substrate, transiently transfected CHO cells.

Data set [8] has as its target T3, OATP1B1. Briefly: Substrate uptake and transport kinetics in CHO cells stably expressing OATP1B1. The settings on record: 2 μM substrate, five minute accumulation, CHOvector = 1.
Data set [9] deals with T3, OATP1B1. The settings on record: 2 μM substrate, transiently transfected CHO cells.
For data set [10], the target named is T2, OATP2B1. The data set is described as follows: Cellular accumulation in CHO cells transiently transfected with OATP2B1. The settings on record: 2 μM substrate, transiently transfected CHO cells. The data set is classed as cell-based.
In the next data set the target is T5, OCT2 (Homo sapiens, UniProt O15244).
T5 sequence (O15244 1-555): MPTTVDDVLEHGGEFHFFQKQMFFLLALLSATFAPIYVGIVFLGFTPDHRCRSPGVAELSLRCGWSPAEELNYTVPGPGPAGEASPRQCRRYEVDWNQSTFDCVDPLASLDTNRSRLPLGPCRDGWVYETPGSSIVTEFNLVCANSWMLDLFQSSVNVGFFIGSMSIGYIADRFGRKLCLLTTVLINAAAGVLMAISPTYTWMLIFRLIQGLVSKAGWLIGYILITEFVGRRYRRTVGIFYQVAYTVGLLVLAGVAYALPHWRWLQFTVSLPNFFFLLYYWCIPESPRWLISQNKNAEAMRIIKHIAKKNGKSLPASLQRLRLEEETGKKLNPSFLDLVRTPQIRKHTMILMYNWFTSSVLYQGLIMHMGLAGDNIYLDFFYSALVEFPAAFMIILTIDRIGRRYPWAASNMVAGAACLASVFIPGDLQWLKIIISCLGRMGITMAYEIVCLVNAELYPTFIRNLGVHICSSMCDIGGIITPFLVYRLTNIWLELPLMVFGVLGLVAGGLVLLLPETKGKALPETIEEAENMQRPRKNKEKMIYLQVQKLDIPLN
Briefly: Cellular accumulation in CHO cells transiently transfected with OCT2. It counts as cell-based. The following applies: 10 μM substrate, transiently transfected CHO cells.

The next data set deals with T6, OCT1 (Homo sapiens, UniProt O15245).
T6 sequence (O15245 1-554): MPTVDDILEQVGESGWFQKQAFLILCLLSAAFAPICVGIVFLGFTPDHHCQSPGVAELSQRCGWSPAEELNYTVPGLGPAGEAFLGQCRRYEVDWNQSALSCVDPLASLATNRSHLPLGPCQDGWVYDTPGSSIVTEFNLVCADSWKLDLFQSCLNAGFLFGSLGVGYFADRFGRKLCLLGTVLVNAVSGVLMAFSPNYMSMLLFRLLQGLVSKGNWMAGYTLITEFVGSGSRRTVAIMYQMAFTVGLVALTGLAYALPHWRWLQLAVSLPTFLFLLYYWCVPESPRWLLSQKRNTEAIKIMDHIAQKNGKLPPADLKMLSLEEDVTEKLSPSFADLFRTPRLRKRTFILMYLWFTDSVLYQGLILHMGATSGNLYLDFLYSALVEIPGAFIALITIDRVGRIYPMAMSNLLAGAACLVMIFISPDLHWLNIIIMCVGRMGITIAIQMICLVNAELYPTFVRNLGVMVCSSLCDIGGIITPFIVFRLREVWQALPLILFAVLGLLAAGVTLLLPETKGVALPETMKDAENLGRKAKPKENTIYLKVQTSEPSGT
The data set is described as follows: Cellular accumulation in CHO cells transiently transfected with OCT1. The data set is classed as cell-based. The following applies: 10 μM substrate, transiently transfected CHO cells.

Another data set has as its target T7, NTCP (Homo sapiens, UniProt Q14973).
T7 sequence (Q14973 1-349): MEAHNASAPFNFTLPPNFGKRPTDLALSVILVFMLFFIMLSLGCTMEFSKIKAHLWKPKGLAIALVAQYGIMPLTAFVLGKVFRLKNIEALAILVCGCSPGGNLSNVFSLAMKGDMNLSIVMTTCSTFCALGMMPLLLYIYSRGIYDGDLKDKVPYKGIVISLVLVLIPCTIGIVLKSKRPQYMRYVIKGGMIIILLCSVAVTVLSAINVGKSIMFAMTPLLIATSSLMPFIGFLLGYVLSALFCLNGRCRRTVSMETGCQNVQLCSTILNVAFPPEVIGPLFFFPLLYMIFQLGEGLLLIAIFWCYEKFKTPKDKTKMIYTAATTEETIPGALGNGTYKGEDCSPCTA
The data set is described as follows: Cellular accumulation in CHO cells transiently transfected with NTCP. It counts as cell-based. The settings on record: 2 μM substrate, transiently transfected CHO cells.

The mark [11] stands for this setting: read-out: OATP1B3 IC50 value, inhibition of OATP1B3-mediated transport of 1.25 μM 8-FcA, 10 min, mean ± standard error, two experiments.
The mark [12] stands for this setting: read-out: OATP1B1 IC50 value, inhibition of OATP1B1-mediated transport of […] 8-FcA, 10 min, mean ± standard error, two experiments.

Read-outs that look alike come from different tables or passages of the source.

One may read the Km as the concentration of substrate that gives half-maximal velocity. Broadly, the IC50 is the concentration at which inhibition is half-maximal. Turning to `O=C1OC(c2ccc(O)c(S(=O)(=O)O)c2)(c2ccc(O)c(S(=O)(=O)O)c2)c2c(Br)c(Br)c(Br)c(Br)c21` [bromosulfophthalein], the “increase in activity versus vector control, OATP1B3” value at OATP1B3 [1] is 1.26 fold. Besides, at OATP2B1 [2], the “cellular accumulation relative to control, CHOOATP2B1” value is given as 6.6 fold. The Km on OATP1B3 [3] is 0.4 µM; on OATP1B1 [7], 0.3 µM. For the same molecule, the IC50 was 510 ± 20 nM at OATP1B3 [4] (setting [11]) and 180 ± 20 nM on OATP1B1 [5] (setting [12]). Besides, on OATP1B3 [6], the “cellular accumulation relative to control, CHOOATP1B3” value is listed as 13.8 fold.
The molecule `COc1ccc(Cl)cc1C(=O)NCCc1ccc(S(=O)(=O)NC(=O)NC2CCCCC2)cc1` [glibenclamide] had an IC50 on OATP1B3 [4] of 2690 ± 120 nM.
For `C[C@]12CC[C@@H]3c4ccc(OS(=O)(=O)O)cc4CC[C@H]3[C@@H]1CCC2=O` [estrone-3-sulfate], the “increase in activity compared to vector control, OAT3” value at OAT3 is listed as 3.8 fold. At OATP1B3 [3], the Km is 58 µM. The concentration for half-maximal inhibition (IC50) amounted to 20100 ± 1000 nM at OATP1B3 [4] (setting [11]) and 53 ± 5 nM at OATP1B1 [5] (setting [12]). The “cellular accumulation relative to control, CHOOATP1B1” value at OATP1B1 [8] is reported as 36.1 fold. The “increase in activity compared to vector control, OATP1B1” value on OATP1B1 [9] is given as 3.1 fold. Besides, the “cellular accumulation relative to control, CHOOATP1B3” value at OATP1B3 [6] was determined as 4.1 fold. The “increase in activity compared to vector control, OATP2B1” value on OATP2B1 [10] amounted to 12.5 fold.
On to `C[C@]12CC[C@@H]3c4ccc(O)cc4CC[C@H]3[C@@H]1CC[C@@H]2O[C@@H]1O[C@H](C(=O)O)[C@@H](O)[C@H](O)[C@H]1O` [estradiol-17β-d-glucuronide], for which the Km is 15.8 µM on OATP1B3 [3] and 5.4 µM on OATP1B1 [7]. The concentration for half-maximal inhibition (IC50) on OATP1B3 [4] (setting [11]) came to 23500 ± 1590 nM; at OATP1B1 [5] (setting [12]) it was 4880 ± 870 nM.
As for `CO[C@H]1/C=C/O[C@@]2(C)Oc3c(C)c(O)c4c(O)c(c(/C=N/N5CCN(C)CC5)c(O)c4c3C2=O)NC(=O)/C(C)=C\C=C\[C@H](C)[C@H](O)[C@@H](C)[C@@H](O)[C@@H](C)[C@H](OC(C)=O)[C@@H]1C` [rifampicin], the 50% inhibitory concentration (IC50) against OATP1B3 [4] turned out to be 650 ± 20 nM; on OATP1B1 [5] it was 990 ± 70 nM. Besides, at OATP1B1 [7], the Km is 13 µM.
As to `CN(C)C(=N)N=C(N)N` [metformin], the “mean increase in transport over vector control, OCT2” value on OCT2 is 24.5 fold. Further, at OCT1, the “mean increase in transport over vector control, OCT1” value was found to be 2.4 fold.
Regarding `NC(Cc1cc(I)c(Oc2cc(I)c(O)c(I)c2)c(I)c1)C(=O)O` (centres unmarked) [thyroxine], the IC50 at OATP1B3 [4] came out at 2130 ± 170 nM; on OATP1B1 [5] it was 3850 ± 880 nM. Besides, the Km on OATP1B1 [7] was 3 µM.
In the case of `C[C@H](CCC(=O)NCCS(=O)(=O)O)[C@H]1CC[C@H]2[C@@H]3[C@H](O)C[C@@H]4C[C@H](O)CC[C@]4(C)[C@H]3C[C@H](O)[C@]12C` [taurocholate], at NTCP, the “increase in transport compared to vector control, NTCP” value amounted to 168.9 fold.
